Measured values: PubChem BioAssay (NCI)
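Cells were grown in 96-well plates and exposed to each compound for 48 hours at five concentrations; endpoints were interpolated linearly between bracketing concentrations, or set to the highest concentration if not reached. The concentration for 50% growth inhibition is given as GI50. TGI is the concentration that stops growth completely.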

Columns and labels:
Test in all cases: NCI anticancer screen, dose series, 48 h
SF-295 CNS = system: SF-295 CNS
U251 CNS = system: U251 CNS
SK-MEL-5 melanoma = system: SK-MEL-5 melanoma
EKVX NSCLC = system: EKVX NSCLC
OVCAR-4 ovarian = system: OVCAR-4 ovarian
MOLT-4 leukemia = system: MOLT-4 leukemia
NCI-H226 lung = system: NCI-H226 lung
HT29 colon = system: HT29 colon
SW-620 colon = system: SW-620 colon
T-47D breast = system: T-47D breast
SF-268 CNS = system: SF-268 CNS
CAKI-1 renal = system: CAKI-1 renal
HCT-116 colon = system: HCT-116 colon
RPMI-8226 leukemia = system: RPMI-8226 leukemia
MDA-MB-435 = system: MDA-MB-435
HS 578T breast = system: HS 578T breast
SNB-19 CNS = system: SNB-19 CNS
NCI/ADR-RES ovarian = system: NCI/ADR-RES ovarian
HOP-62 NSCLC = system: HOP-62 NSCLC
UACC-257 melanoma = system: UACC-257 melanoma
DU-145 prostate = system: DU-145 prostate
NCI-H23 lung = system: NCI-H23 lung
NCI-H522 lung = system: NCI-H522 lung
SF-539 CNS = system: SF-539 CNS
MALME-3M melanoma = system: MALME-3M melanoma
HL-60(TB) leukemia = system: HL-60(TB) leukemia
SK-OV-3 ovarian = system: SK-OV-3 ovarian
SK-MEL-2 melanoma = system: SK-MEL-2 melanoma
CCRF-CEM leukemia = system: CCRF-CEM leukemia
HOP-92 NSCLC = system: HOP-92 NSCLC
KM12 colon = system: KM12 colon
COLO 205 colon = system: COLO 205 colon
NCI-H460 lung = system: NCI-H460 lung
BT-549 breast = system: BT-549 breast
A549 NSCLC = system: A549 NSCLC
UO-31 renal = system: UO-31 renal
SR leukemia = system: SR leukemia
SN12C renal = system: SN12C renal
K-562 leukemia = system: K-562 leukemia
TK-10 renal = system: TK-10 renal
M14 melanoma = system: M14 melanoma
RXF 393 renal = system: RXF 393 renal
SK-MEL-28 melanoma = system: SK-MEL-28 melanoma
IGROV1 ovarian = system: IGROV1 ovarian
MCF7 breast = system: MCF7 breast
A498 renal = system: A498 renal
MDA-MB-231 breast = system: MDA-MB-231 breast
HCT-15 colon = system: HCT-15 colon
OVCAR-5 ovarian = system: OVCAR-5 ovarian
SNB-75 CNS = system: SNB-75 CNS
LOX IMVI melanoma = system: LOX IMVI melanoma
HCC-2998 colon = system: HCC-2998 colon
UACC-62 melanoma = system: UACC-62 melanoma
PC-3 prostate = system: PC-3 prostate
786-0 renal = system: 786-0 renal
OVCAR-8 ovarian = system: OVCAR-8 ovarian
OVCAR-3 ovarian = system: OVCAR-3 ovarian

With `COc1ccc(-c2cn(-c3cccc(C(=O)/C=C/c4cc(OC)c(OC)c(OC)c4)c3)c(=O)[nH]2)cc1` the GI50 (SF-295 CNS) was 4.95 µM, the TGI (SF-295 CNS) was 22 µM and the GI50 (U251 CNS) was 0.888 µM. The TGI (U251 CNS) was 3.25 µM, the GI50 (SK-MEL-5 melanoma) was 2.03 µM and the TGI (SK-MEL-5 melanoma) was 5.25 µM. For the same compound, the GI50 (EKVX NSCLC) was 4.2 µM, the TGI (EKVX NSCLC) was over 100 µM and the GI50 (OVCAR-4 ovarian) was 3.57 µM. The TGI (OVCAR-4 ovarian) was over 100 µM, the GI50 (MOLT-4 leukemia) was 3.48 µM and the TGI (MOLT-4 leukemia) was over 100 µM. For the same compound, the GI50 (NCI-H226 lung) was 35.2 µM, the TGI (NCI-H226 lung) was over 100 µM and the GI50 (HT29 colon) was 1.28 µM. It also gave a TGI (HT29 colon) of 2.58 µM, a GI50 (SW-620 colon) of 0.452 µM and a TGI (SW-620 colon) of 1.61 µM. The GI50 (T-47D breast) was 3.84 µM, the TGI (T-47D breast) was 22.4 µM and the GI50 (SF-268 CNS) was 3.21 µM. For the same compound, the TGI (SF-268 CNS) was 10.6 µM, the GI50 (CAKI-1 renal) was 3.05 µM and the TGI (CAKI-1 renal) was 13.2 µM. It also gave a GI50 (HCT-116 colon) of 0.371 µM, a TGI (HCT-116 colon) of 1.38 µM and a GI50 (RPMI-8226 leukemia) of 0.924 µM. For the same compound, the TGI (RPMI-8226 leukemia) was over 100 µM, the GI50 (MDA-MB-435) was 1.86 µM and the TGI (MDA-MB-435) was 7.49 µM. For the same compound, the GI50 (HS 578T breast) was 3.39 µM, the TGI (HS 578T breast) was 25.6 µM and the GI50 (SNB-19 CNS) was 4.38 µM. The TGI (SNB-19 CNS) was 15.8 µM, the GI50 (NCI/ADR-RES ovarian) was 1.7 µM and the TGI (NCI/ADR-RES ovarian) was 4.67 µM. It also gave a GI50 (HOP-62 NSCLC) of 5.91 µM, a TGI (HOP-62 NSCLC) of 18.1 µM and a GI50 (UACC-257 melanoma) of 3.04 µM. The TGI (UACC-257 melanoma) was 12.1 µM, the GI50 (DU-145 prostate) was 2.61 µM and the TGI (DU-145 prostate) was 8.76 µM. It also gave a GI50 (NCI-H23 lung) of 1.63 µM, a TGI (NCI-H23 lung) of 4.35 µM and a GI50 (NCI-H522 lung) of 1.85 µM. For the same compound, the TGI (NCI-H522 lung) was 4.39 µM, the GI50 (SF-539 CNS) was 2 µM and the TGI (SF-539 CNS) was 4.09 µM. It also gave a GI50 (MALME-3M melanoma) of 1.79 µM, a TGI (MALME-3M melanoma) of 6.24 µM and a GI50 (HL-60(TB) leukemia) of 4.28 µM. The TGI (HL-60(TB) leukemia) was over 100 µM, the GI50 (SK-OV-3 ovarian) was 4.6 µM and the TGI (SK-OV-3 ovarian) was 61.2 µM. The GI50 (SK-MEL-2 melanoma) was 2.63 µM, the TGI (SK-MEL-2 melanoma) was 7.41 µM and the GI50 (CCRF-CEM leukemia) was 1.74 µM. It also gave a TGI (CCRF-CEM leukemia) of over 100 µM, a GI50 (HOP-92 NSCLC) of 14.9 µM and a TGI (HOP-92 NSCLC) of 67.2 µM. The GI50 (KM12 colon) was 1.42 µM, the TGI (KM12 colon) was 2.75 µM and the GI50 (COLO 205 colon) was 1.84 µM. The TGI (COLO 205 colon) was 3.89 µM, the GI50 (NCI-H460 lung) was 1.56 µM and the TGI (NCI-H460 lung) was 3.14 µM. It also gave a GI50 (BT-549 breast) of 2.59 µM, a TGI (BT-549 breast) of 8.92 µM and a GI50 (A549 NSCLC) of 11.8 µM. For the same compound, the TGI (A549 NSCLC) was over 100 µM, the GI50 (UO-31 renal) was 1.91 µM and the TGI (UO-31 renal) was 6.73 µM. For the same compound, the GI50 (SR leukemia) was 0.85 µM, the TGI (SR leukemia) was over 100 µM and the GI50 (SN12C renal) was 3.5 µM. The TGI (SN12C renal) was 18.5 µM, the GI50 (K-562 leukemia) was 1.27 µM and the TGI (K-562 leukemia) was over 100 µM. For the same compound, the GI50 (TK-10 renal) was 3.04 µM, the TGI (TK-10 renal) was 9.97 µM and the GI50 (M14 melanoma) was 1.85 µM. It also gave a TGI (M14 melanoma) of 5.21 µM, a GI50 (RXF 393 renal) of 1.92 µM and a TGI (RXF 393 renal) of 3.75 µM. The GI50 (SK-MEL-28 melanoma) was 2.03 µM, the TGI (SK-MEL-28 melanoma) was 4.04 µM and the GI50 (IGROV1 ovarian) was 2.58 µM. The TGI (IGROV1 ovarian) was 7.42 µM, the GI50 (MCF7 breast) was 0.444 µM and the TGI (MCF7 breast) was 3.45 µM. For the same compound, the GI50 (A498 renal) was 4.21 µM, the TGI (A498 renal) was 14.5 µM and the GI50 (MDA-MB-231 breast) was 5.48 µM. It also gave a TGI (MDA-MB-231 breast) of 25.4 µM, a GI50 (HCT-15 colon) of 1.38 µM and a TGI (HCT-15 colon) of 4.7 µM. For the same compound, the GI50 (OVCAR-5 ovarian) was 2.64 µM, the TGI (OVCAR-5 ovarian) was 5.51 µM and the GI50 (SNB-75 CNS) was 4.59 µM. The TGI (SNB-75 CNS) was 17 µM, the GI50 (LOX IMVI melanoma) was 0.725 µM and the TGI (LOX IMVI melanoma) was 2.3 µM. It also gave a GI50 (HCC-2998 colon) of 1.64 µM, a TGI (HCC-2998 colon) of 3 µM and a GI50 (UACC-62 melanoma) of 2.06 µM. It also gave a TGI (UACC-62 melanoma) of 4.85 µM, a GI50 (PC-3 prostate) of 6.22 µM and a TGI (PC-3 prostate) of 39 µM. It also gave a GI50 (786-0 renal) of 1.61 µM, a TGI (786-0 renal) of 3.25 µM and a GI50 (OVCAR-8 ovarian) of 2.53 µM. For the same compound, the TGI (OVCAR-8 ovarian) was 15.3 µM, the GI50 (OVCAR-3 ovarian) was 1.78 µM and the TGI (OVCAR-3 ovarian) was 4.23 µM.
